Test results: US11541027B2 (DelMar Pharmaceuticals, Inc., priority 2014, dated 2023)
“Also recorded” adds a separate entry of the source.

Columns and labels:
[1] = system: NSCLC cell lines other than H460; assay: Cytotoxicity in NSCLC tumor models, range over the cell lines other than H460; format: cell-based, human; settings: NSCLC cell lines other than H460, single agents
[2] = system: A549 (TKI-sensitive) human lung adenocarcinoma xenograft tumors; assay: A549 NSCLC xenograft tumor model in female Rag2 mice
Method: (§1) Rag2 mice bearing subcutaneous human lung adenocarcinoma xenograft tumors of either TKI-resistant (H1975) or TKI-sensitive (A549) origin were treated.
(§2) Two human NSCLC cell lines, A549 (TKI-sensitive) and H1975 (TKI-resistant), were used as xenograft tumor models in female Rag2 mice. The mice were 6 to 8 weeks of age and weighed 18-23 grams. 10 mice were used per group.
Cisplatin was used in normal saline at a dose of 5 mg/kg. Administration was intravenous.
Administration was intraperitoneal.
Treatment was initiated at a tumor volume of 100 mm^3 to 150 mm^3.
The cells were started from a frozen vial of lab stock that were frozen down from the ATCC original vial and kept in liquid nitrogen. Cell cultures with a passage number of 3 to 10 and a confluence of 80%-90% were used. […] Cells were subcultured once weekly with a split ratio 1:3 to 1:8 and expanded.
For cell preparation and harvesting for subcutaneous (s.c.) inoculation, the cells were rinsed briefly once with Hanks Balanced Salt Solution without calcium or magnesium. […] The cells were allowed to sit at 37° C. for a few minutes. The cells were observed under an inverted microscope until the cell layer was dispersed, fresh medium was added, 50 μL of cell suspension was taken and mixed with trypan blue (1:1), and the cells were counted and cell viability assessed by using Cellometer Auto T4. The cells were centrifuged at 200×g for 7 minutes and the supernatant was aspirated. The cells were resuspended in growth medium to obtain a concentration of 100×10^6 cells/mL. For inoculation, 5×10^6 cells were used in an injection volume of 50 μL per mouse in 1:1 Matrigel.
On day 0, tumor cells were implanted subcutaneously into mice in a volume of 50 μL in Matrigel using a 28-gauge needle; injection of the tumor cells was in the back of the mice. Mice were randomly assigned to groups based on tumor volume.
For administration, 5 mL of 0.9% sodium chloride for injection, USP (saline) was added to yield a DAG solution with a concentration of 8 mg/mL.
Mice were injected with the required volume to administer the prescribed dose (mg/kg) to the animals based on individual mouse weights using a 28-gauge needle. The injection volume was 200 μL for a 20-g mouse. The mice were briefly (less than 30 seconds) restrained during intravenous injections. Dilation of the vein for intravenous injections was achieved by holding the animals under a heat lamp for a period of between 1-2 minutes.
Mice were individually weighed and injected intraperitoneally according to body weight at the specified injection concentration (see Table 1). The injection volume was based on 200 μL per 20-g mouse. The abdominal surface was wiped down with 70% isopropyl alcohol to clean the injection site.
Tumor growth was monitored by measuring tumor dimensions with calipers beginning on the first day of treatment. Tumor length and width measurements were obtained each Monday, Wednesday, and Friday. Tumor volumes were calculated according to the equation L×W^2/2 with the length (in mm) being defined as the longer axis of the tumor. Animals were weighed at the time of tumor measurement. Tumors were allowed to grow to a maximum of 800 mm^3 before termination.
All animals had blood collected by cardiac puncture at termination for CBC (complete blood count) with differentiation.
In particular, signs of ill-health were based on body weight loss, change in appetite, and behavioral signs such as altered gait, lethargy, and gross manifestations of stress.

RIF-1 cell-line = assay: Standard syngeneic mouse fibrosarcoma model, tumor growth delay; format: in vivo; settings: 4 mg/kg, single IP injection, RIF-1 in C3H mice; for Tumor Delay: vs untreated
[3] = system: H1975 (TKI-resistant) human lung adenocarcinoma xenograft tumors; assay: H1975 NSCLC xenograft tumor model in female Rag2 mice
Method: as §1, §2
Rag2 mice bearing subcutaneous human lung adenocarcinoma xenograft tumors of either TKI-sensitive (A549) or TKI-resistant (H1975) origin were treated. […] Saline was used as control treatment. Disease progression was evaluated by tumor volume, clinical observations and body weight measurements. Blood samples were analyzed for CBC/differential analyses to assess myelosuppression or other changes in blood chemistry.
Cell number for inoculation was 5×10^6 cells for A549 cells in an injection volume of 50 μL per animal. For H1975 cells, cell number for inoculation was 2×10^6 cells in an injection volume of 50 μL per animal.
Treatment was initiated at average tumor volume of 100-150 mm^3.
Tumor growth delay (TGD) was calculated according to Equation (2): TGD=DTtx−DTcontrol (2).
For these calculations, TV is tumor volume, tx is treatment, int is initial, DT is doubling time for mean tumor volume from 200 mm^3 to 400 mm^3 for A549 or from 300 mm^3 to 600 mm^3 for H1975. MTV is mean tumor volume in mm^3 and TCR is tumor control ratio.
Disease progression was evaluated by tumor volume, clinical observations and body weight measurements.

A549 = assay: Cytotoxicity in NSCLC tumor models; format: cell-based, human; settings: A549, p53 wt; N = 3
Excerpt: (§3) The cell lines include cell lines with wild-type p53, cell lines with mutant p53, and cell lines in which p53 has been knocked out (“null”). The properties of these cell lines are described in F. Bunz et al., “Requirement for p53 and p21 to Sustain G2 Arrest After DNA Damage,” Science 282: 1497-1501 (1998), incorporated herein by this reference.

H838 = assay: Cytotoxicity in NSCLC tumor models; format: cell-based, human; settings: H838, p53 wt; N = 3
Excerpt: as §3

H157 = assay: Cytotoxicity in NSCLC tumor models; format: cell-based, human; settings: H157, p53 mu; N = 3
Excerpt: as §3

H2122 = assay: Cytotoxicity in NSCLC tumor models; format: cell-based, human; settings: H2122, p53 mu; N = 3
Excerpt: as §3

H1975 = assay: Cytotoxicity in NSCLC tumor models; format: cell-based, human; settings: H1975, p53 mu; N = 3
Excerpt: as §3

H1299 = assay: Cytotoxicity in NSCLC tumor models; format: cell-based, human; settings: H1299, p53 null; N = 3
Excerpt: as §3

SkLU1 = assay: Cytotoxicity in NSCLC tumor models; format: cell-based, human; settings: SkLU1, p53 mu; N = 3
Excerpt: as §3

H460 = assay: Cytotoxicity in NSCLC tumor models; format: cell-based, human; settings: H460, p53 wt; N = 3
Excerpt: as §3

H226 = assay: Cytotoxicity in NSCLC tumor models; format: cell-based, human; settings: H226, p53 wt; N = 3
Excerpt: as §3

[4] = cited from earlier work
[5] = 5 mg/kg i.v. Q7D × 3, A549 model
[6] = group 2, 5 mg/kg Q7D×3 i.v., A549 model, days post-inoculation

For `N.N.[Cl][Pt][Cl]` [Cisplatin, cisplatin, reference compound], the IC50 [1] was 500 to 2200 nM, the “MTV at Day 68” value [2, 5] was 460 mm^3 and the “Median survival” value [2, 5] was 72 days. For the same compound, the “TCR at Day 68” value ([2]; 5 mg/kg i.v. Q7D × 3, A549 model, tumor control ratio) was 0.72, the “TGD” value ([2]; 5 mg/kg i.v. Q7D × 3, A549 model, tumor growth delay vs untreated control, doubling time 200 to 400 mm^3) was 4 days and the “TGI (%)” value ([2]; 5 mg/kg i.v. Q7D × 3, A549 model, tumor growth inhibition) was 29%. For the same compound, the “body weight / tolerability of the dosage” value ([2]; 5 mg/kg i.v. Q7D × 3, A549 tumor-bearing Rag2 mice) was “body weight loss was observed; also recorded: near the MTD”, the “number of animals remaining on study on day 70” value ([2]; group 2, 5 mg/kg Q7D×3 i.v., A549 model) was 6/10 and the “day on which a mean tumor volume of 200 mm^3 was observed” value [2, 6] was 49 days. For the same compound, the “day on which a mean tumor volume of 400 mm^3 was reached” value [2, 6] was 66 days, the doubling time ([2]; group 2, 5 mg/kg Q7D×3 i.v., A549 model, mean tumor volume 200 to 400 mm^3) was 17 and the “Days to 4 × Median Tumor Size” value (RIF-1 cell-line) was 7.75 days. For the same compound, the “Tumor Delay” value (RIF-1 cell-line) was 1.45 days, the “Tumor Delay” value (RIF-1 cell-line; listed as cisplatin) was 1.5 days and the “MTV at Day 31” value ([3]; 5 mg/kg i.v. Q7D × 3) was 381 mm^3. The “Median survival” value ([3]; 5 mg/kg i.v. Q7D × 3) was 31 days, the body weight ([3]; 5 mg/kg i.v. Q7D × 3 (group 2)) was “Body weight loss was observed” and the “TCR at Day 31” value ([3]; 5 mg/kg i.v. Q7D × 3, tumor control ratio) was 0.83. It also gave an IC50 (A549) of 0.74 µM, an IC50 (H838) of 1.18 µM and an IC50 (H157) of 2.16 µM. It also gave an IC50 (H2122) of 1.07 µM, an IC50 (H1975) of 0.45 µM and an IC50 (H1299) of 1.2 µM. It also gave an IC50 (SkLU1) of 0.89 µM, an IC50 (H460) of 0.45 µM and an IC50 (H226) of 1.82 µM.
`O=C1[O][Pt]2([NH][C@@H]3CCCC[C@H]3[NH]2)[O]C1=O` [Oxaliplatin, oxaliplatin] gave an IC50 [1] of 600 to 2600 nM, an IC50 (A549) of 0.57 µM and an IC50 (H838) of 2.63 µM. The IC50 (H157) was 2.04 µM, the IC50 (H2122) was 1.42 µM and the IC50 (H1975) was 0.51 µM. The IC50 (H1299) was 0.64 µM, the IC50 (SkLU1) was 2.02 µM and the IC50 (H460) was 0.36 µM. It also gave an IC50 (H226) of 0.82 µM.
For `O[C@H]([C@H](O)[C@@H](O)CBr)[C@H](O)CBr` [dibromodulcitol], the “absorption by the oral route” value [4] is listed as “rapid and fairly complete”.
